Assay results taken from ChEMBL document CHEMBL1201862, “PubChem BioAssay data set” (2004).
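Cultured in 96-well plates, cells were exposed to test compound for 48 hours across five concentrations. GI50 = concentration required for 50% inhibition of growth.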 The source made the active and inactive calls. No stated cut-off is given here; in the data, active = GI50 up to about 1.1 µM and inactive = higher.

Legend:
Experiment in all cases: NCI-60 cell line screen, 48 h
RXF 631 = tested on: RXF 631
LOX IMVI = tested on: LOX IMVI
SK-MEL-2 = tested on: SK-MEL-2
DLD-1 = tested on: DLD-1
COLO 205 = tested on: COLO 205
M19-MEL = tested on: M19-MEL
MOLT-4 = tested on: MOLT-4
CCRF-CEM = tested on: CCRF-CEM
HCT-15 = tested on: HCT-15
NCI-H226 = tested on: NCI-H226
A549 = tested on: A549
IGROV-1 = tested on: IGROV-1
TK-10 = tested on: TK-10
OVCAR-3 = tested on: OVCAR-3
ACHN = tested on: ACHN
LXFL 529 = tested on: LXFL 529
KM-20L2 = tested on: KM-20L2
RXF 393 = tested on: RXF 393
U-251 = tested on: U-251
SW-620 = tested on: SW-620
NCI-H460 = tested on: NCI-H460
DMS-273 = tested on: DMS-273
SN12C = tested on: SN12C
SK-MEL-28 = tested on: SK-MEL-28
RPMI-8226 = tested on: RPMI-8226
786-0 = tested on: 786-0
KM12 = tested on: KM12
HT-29 = tested on: HT-29
SNB-75 = tested on: SNB-75
NCI-H522 = tested on: NCI-H522
HOP-18 = tested on: HOP-18
NCI-H23 = tested on: NCI-H23
SF-268 = tested on: SF-268
SF-295 = tested on: SF-295
M14 = tested on: M14
UO-31 = tested on: UO-31
Malme-3M = tested on: Malme-3M
SR = tested on: SR
K562 = tested on: K562
SNB-78 = tested on: SNB-78
SF-539 = tested on: SF-539
UACC-62 = tested on: UACC-62
OVCAR-5 = tested on: OVCAR-5
EKVX = tested on: EKVX
XF498 = tested on: XF498
HL-60 = tested on: HL-60
OVCAR-8 = tested on: OVCAR-8
HCT-116 = tested on: HCT-116
HCC 2998 = tested on: HCC 2998
HOP-92 = tested on: HOP-92
SNB-19 = tested on: SNB-19
UACC-257 = tested on: UACC-257
SK-MEL-5 = tested on: SK-MEL-5
SK-OV-3 = tested on: SK-OV-3
OVCAR-4 = tested on: OVCAR-4
DMS-114 = tested on: DMS-114
A498 = tested on: A498
HOP-62 = tested on: HOP-62
CAKI-1 = tested on: CAKI-1

COc1ccc2c(C(=O)O)cc3cc(OC)c(OC)cc3c2c1
GI50 (RXF 631): > 100 µM (inactive) | GI50 (LOX IMVI): > 100 µM (inactive) | GI50 (SK-MEL-2): > 100 µM (inactive) | GI50 (DLD-1): > 100 µM (inactive) | GI50 (COLO 205): > 100 µM (inactive) | GI50 (M19-MEL): > 100 µM (inactive) | GI50 (MOLT-4): > 100 µM (inactive) | GI50 (CCRF-CEM): > 100 µM (inactive) | GI50 (HCT-15): > 100 µM | GI50 (NCI-H226): > 100 µM (inactive) | GI50 (A549): > 100 µM (inactive) | GI50 (IGROV-1): > 100 µM (inactive) | GI50 (TK-10): > 100 µM (inactive) | GI50 (OVCAR-3): > 100 µM (inactive) | GI50 (ACHN): > 100 µM (inactive) | GI50 (LXFL 529): > 100 µM (inactive) | GI50 (KM-20L2): > 100 µM (inactive) | GI50 (RXF 393): > 100 µM (inactive) | GI50 (U-251): > 100 µM (inactive) | GI50 (SW-620): > 100 µM (inactive) | GI50 (NCI-H460): > 100 µM (inactive) | GI50 (DMS-273): > 100 µM (inactive) | GI50 (SN12C): > 100 µM (inactive) | GI50 (SK-MEL-28): > 100 µM (inactive) | GI50 (RPMI-8226): > 100 µM (inactive) | GI50 (786-0): > 100 µM (inactive) | GI50 (KM12): > 100 µM (inactive) | GI50 (HT-29): > 100 µM (inactive) | GI50 (SNB-75): > 100 µM (inactive) | GI50 (NCI-H522): > 100 µM (inactive) | GI50 (HOP-18): > 100 µM (inactive) | GI50 (NCI-H23): > 100 µM (inactive) | GI50 (SF-268): > 100 µM (inactive) | GI50 (SF-295): > 100 µM (inactive) | GI50 (M14): > 100 µM (inactive) | GI50 (UO-31): > 100 µM (inactive) | GI50 (Malme-3M): > 100 µM (inactive) | GI50 (SR): > 100 µM (inactive) | GI50 (K562): > 100 µM (inactive) | GI50 (SNB-78): > 100 µM (inactive) | GI50 (SF-539): > 100 µM (inactive) | GI50 (UACC-62): > 100 µM (inactive) | GI50 (OVCAR-5): > 100 µM (inactive) | GI50 (EKVX): > 100 µM (inactive) | GI50 (XF498): > 100 µM (inactive) | GI50 (HL-60): 57.4 µM (inactive) | GI50 (OVCAR-8): > 100 µM (inactive) | GI50 (HCT-116): > 100 µM (inactive) | GI50 (HCC 2998): > 100 µM (inactive) | GI50 (HOP-92): > 100 µM (inactive) | GI50 (SNB-19): > 100 µM (inactive) | GI50 (UACC-257): > 100 µM (inactive) | GI50 (SK-MEL-5): 43.6 µM (inactive) | GI50 (SK-OV-3): > 100 µM (inactive)

C=CCn1c(=O)c(C(=O)NC(=O)OCC)cn(C2CCCCC2)c1=O
GI50 (OVCAR-4): > 100 µM (inactive) | GI50 (RXF 631): > 100 µM (inactive) | GI50 (LOX IMVI): > 100 µM (inactive) | GI50 (SK-MEL-2): > 100 µM (inactive) | GI50 (DLD-1): > 100 µM (inactive) | GI50 (COLO 205): > 100 µM (inactive) | GI50 (MOLT-4): > 100 µM (inactive) | GI50 (CCRF-CEM): > 100 µM (inactive) | GI50 (HCT-15): > 100 µM | GI50 (NCI-H226): > 100 µM (inactive) | GI50 (A549): > 100 µM (inactive) | GI50 (IGROV-1): > 100 µM (inactive) | GI50 (TK-10): > 100 µM (inactive) | GI50 (OVCAR-3): > 100 µM (inactive) | GI50 (ACHN): > 100 µM (inactive) | GI50 (LXFL 529): > 100 µM (inactive) | GI50 (DMS-114): > 100 µM (inactive) | GI50 (KM-20L2): > 100 µM (inactive) | GI50 (U-251): > 100 µM (inactive) | GI50 (SW-620): > 100 µM (inactive) | GI50 (NCI-H460): > 100 µM (inactive) | GI50 (DMS-273): > 100 µM (inactive) | GI50 (SN12C): > 100 µM (inactive) | GI50 (SK-MEL-28): > 100 µM (inactive) | GI50 (RPMI-8226): > 100 µM (inactive) | GI50 (786-0): > 100 µM (inactive) | GI50 (KM12): > 100 µM (inactive) | GI50 (HT-29): > 100 µM (inactive) | GI50 (SNB-75): > 100 µM (inactive) | GI50 (HOP-18): > 100 µM (inactive) | GI50 (NCI-H23): > 100 µM (inactive) | GI50 (SF-295): > 100 µM (inactive) | GI50 (M14): > 100 µM (inactive) | GI50 (UO-31): > 100 µM (inactive) | GI50 (Malme-3M): > 100 µM (inactive) | GI50 (SR): > 100 µM (inactive) | GI50 (K562): > 100 µM (inactive) | GI50 (SNB-78): > 100 µM (inactive) | GI50 (SF-539): > 100 µM (inactive) | GI50 (UACC-62): > 100 µM (inactive) | GI50 (OVCAR-5): > 100 µM (inactive) | GI50 (EKVX): > 100 µM (inactive) | GI50 (XF498): > 100 µM (inactive) | GI50 (A498): > 100 µM (inactive) | GI50 (HL-60): > 100 µM (inactive) | GI50 (OVCAR-8): > 100 µM (inactive) | GI50 (HCT-116): > 100 µM (inactive) | GI50 (HCC 2998): > 100 µM (inactive) | GI50 (HOP-92): > 100 µM (inactive) | GI50 (SNB-19): > 100 µM (inactive) | GI50 (UACC-257): > 100 µM (inactive) | GI50 (SK-MEL-5): > 100 µM (inactive) | GI50 (HOP-62): > 100 µM (inactive) | GI50 (CAKI-1): > 100 µM (inactive) | GI50 (SK-OV-3): > 100 µM (inactive)
